pEC50: −log10 of the molar value. Values after ≈ are worked out from the molar mass of the structure shown. Read-outs that look alike come from different tables or passages of the source.
What was measured:
[1] = system: C. difficile VPI10463 ATCC 43255; experiment: MIC broth microdilution, C. difficile VPI 10463; format: cell-based, Clostridium difficile; details: Clostridioides difficile, ATCC 43255 / ATCC BAA-1803; VPI 10463, MtzS, 24 h, median of at least n = 4
Description: (§1) All compounds were tested for activity against a set of anaerobic C. difficile bacteria (630 ATCC BAA-1382, NAP1/027 M7404, NAP1/027 ATCC BAA-1803, VPI10463 ATCC 43255, CD26A54_S and CD26A54_R) and representative ESKAPE pathogens S. aureus (MRSA ATCC 43300), E. coli (ATCC 25922), K. pneumoniae (ATCC 700603), A. baumannii (ATCC 19606) and P. aeruginosa (ATCC 27853) using a standard broth microdilution assay. Selected compounds were tested for activity against H. pylori strains (26695, and clinical isolates MtzS 13/25, MtzR 98/285 and MtzR 13/61) using agar plate dilution, and for antimicrobial activity against […] Gram-positive bacterial strains: Enterococcus faecalis (VanA clinical isolate), Enterococcus faecium (MDR VanA ATCC 51559), Streptococcus pneumoniae (MDR ATCC 700677), S. aureus (MRSA ATCC 43300, MRSA clinical isolate, MRSA/DRSA clinical isolate, GISA NARSA NRS 1, GISA NARSA NRS 17, VRSA NARSA VRS1, VRSA NARSA VRS4 and VRSA NARSA VRS10) using broth microdilution. C. difficile strains were grown at 37 °C in a COY anaerobic chamber (5% H2, 10% CO2, 85% N2). H. pylori strains were grown at 37 °C under a microaerobic atmosphere (5% O2, 10% CO2). All facultative anaerobic bacteria were grown at 37 °C with normal atmospheric oxygen levels. All experiments were performed in duplicate with metronidazole, vancomycin, linezolid or colistin as positive controls for relevant strains (see Table 1). Positive growth control of bacteria and DMSO as well as a negative control of only media were included for every plate. Full assay details are provided in the supplementary information.
(§2) C. difficile ATCC BAA-1382, ATCC BAA-1803, ATCC 43255 and M7404 heat shocked spore stocks (10 µL) were transferred into the anaerobic chamber and 10 µL streaked onto pre-reduced (at least 2.5 hr in anaerobic chamber) BHIS agar plates supplemented with 0.1% w/v sodium taurocholate (BHIS(TA)). Plates were incubated for 24 hours prior to assay to give colonies of size 1-3mm diameter with characteristic uneven borders.
(§3) The minimum inhibition concentration was determined according to the CLSI Methods with modifications in broth and inoculum for C. difficile according to Babakhani et al.^7,8 Briefly, compounds were prepared to 20X final concentration in 100% water, 60% DMSO and 40% water or 60% DMSO and 40% media. The compounds along with standard antibiotics were serially diluted two-fold across the wells of 96-well non-binding surface plates (Non binding surface, Corning). The plates were placed in the anaerobic chamber overnight to reduce. C. difficile bacteria from BHIS(TA) agar plates were cultured anaerobically in BHIS at 37 °C overnight. A sample of culture was then diluted 40-fold in BHIS broth and incubated at 37 °C for approximately 4.5 hrs. The resultant mid-log phase culture (OD600= 0.5-0.6) was diluted to the final concentration of ~1×10^6 CFU/mL, then 50 µL was added to each well of the compound-containing 96-well plates. This gave final cell concentration of 5×10^5 CFU/mL, final volume 100 µL and 3% maximum DMSO concentration. Compound concentration was typically from 64 to 0.03 µg/mL. An antibiotic standard was included on each 96 well plate as well as a positive growth control (no compound) and sterility control (no bacteria). All the plates were covered and incubated at 37 °C for 24 h. MICs were the lowest concentration showing no visible growth.

[2] = system: G. lamblia 713-M3 (713M); experiment: ATP-bioluminescence growth and survival assay, metronidazole resistant G. lamblia 713-M3; format: cell-based; details: Giardia duodenalis, read-out: EC50 G. lamblia 713M
Description: (§4) Compounds were tested for antiparasitic activity against E. histolytica (HM1:1MSS strain) and G. lamblia (WB, BRIS/87/HEPU/713 (713), BRIS/83/HEPU/106 (106) and the metronidazole resistant syngeneic line 713-M3 [[15,16]]) using an ATP-bioluminescence based screen for cell growth and survival [[17,18]]. Assay plates were inoculated with trophozoites (5 × 10^3 parasites/well) and incubated in the GasPak™ EZ Anaerobe Gas Generating Pouch Systems (VWR, West Chester, PA) to maintain anaerobic conditions throughout the incubation period. The assays were performed in triplicate using the CellTiter-Glo Luminescent Cell Viability Assay. Metronidazole was used as a positive control.
(§5) Trophozoites of E. histolytica strain HM1:IMSS and G. lamblia strains WB, BRIS/87/HEPU/713 (713),^10 BRIS/83/HEPU/106 (106)^11 and the metronidazole resistant syngenic line 713-M3^10,11 were axenically maintained in TYI-S-33 medium supplemented with penicillin (100 U/ml), streptomycin (100 µg/ml).^12 E. histolytica and G. lamblia trophozoites were counted using a particle counter (Beckman Coulter, Fullerton, CA). All experiments were performed using trophozoites harvested during the logarithmic phase of growth.
(§6) A three-fold serial dilution was then performed yielding a concentration range 0.25-625 µM. From this dilution plate, 4 µL were transferred into the 96-well screen plates followed by addition of 96 µL of trophozoites (5,000 parasites) to yield a final 8-point concentration range spanning 0.01- 25 µM. Assay plates were incubated for 48 h at 37 °C in the GasPak^TM EZ Anaerobe Gas Generating Pouch Systems (VWR, West Chester, PA) to maintain anaerobic condition throughout the incubation period. The assays were performed in triplicate using the CellTiter-Glo Luminescent Cell Viability Assay.^13

[3] = system: C. difficile NAP1/027 M7404; experiment: MIC broth microdilution, C. difficile NAP1/027 M7404; format: cell-based, Clostridium difficile; details: Clostridioides difficile, NAP1/027M7404; NAP1/027 (footnote d: M7404), MtzS, 24 h, median of at least n = 4
Description: as §1, §2, §3

[4] = system: G. lamblia BRIS/87/HEPU/713 (713); experiment: ATP-bioluminescence growth and survival assay, G. lamblia 713; format: cell-based; details: Giardia duodenalis, read-out: EC50 G. lamblia 713
Description: as §4, §5, §6

[5] = system: G. lamblia WB trophozoites; experiment: ATP-bioluminescence growth and survival assay, G. lamblia WB; format: cell-based, Giardia lamblia; details: Giardia duodenalis; MtzS, 48 h, anaerobic, n = 3
Description: as §4, §5, §6

| SMILES | MIC [1] [µg/mL] | pEC50 [2] | MIC [3] [µg/mL] | pEC50 ([4]; MtzS, purified compounds, this study) | pEC50 [5] | pEC50 [4] |
| --- | --- | --- | --- | --- | --- | --- |
| Cc1ncc([N+](=O)[O-])n1CCO [Compound 1, metronidazole] | 0.5 (≈ 2.92 µM) | 4.77 | 0.5 (≈ 2.92 µM) | 5.64 | 5.10 |  |
| Cc1ncc([N+](=O)[O-])n1CCn1cc(-c2ccc(Cl)c(Cl)c2)nn1 [Compound 4d, 1-(2-(2-methyl-5-nitro-1H-imidazol-1-yl)ethyl)-4-(3,4-dichlorophenyl)-1H-1,2,3-triazole] | 0.5 to 1 (≈ 1.36 to 2.72 µM) | 5.92 | 1 (≈ 2.72 µM) |  | 6.41 | 5.60 |
| Cc1ncc([N+](=O)[O-])n1CCn1cc(-c2ccccc2)nn1 [Compound 4a, 1-(2-(2-methyl-5-nitro-1H-imidazol-1-yl)ethyl)-4-phenyl-1H-1,2,3-triazole] | 0.25 to 0.5 (≈ 0.838 to 1.68 µM) | 5.64 | 0.5 (≈ 1.68 µM) |  | 6.60 | 6.80 |
| Cc1ncc([N+](=O)[O-])n1CCn1cc(-c2ccc(Cl)cc2)nn1 [Compound 4c, 1-(2-(2-methyl-5-nitro-1H-imidazol-1-yl)ethyl)-4-(4-chlorophenyl)-1H-1,2,3-triazole] | 0.25 (≈ 0.751 µM) | 5.46 | 0.25 (≈ 0.751 µM) |  | 6.70 | 5.92 |

Reference: publication PMC4550478, “Metronidazole-triazole conjugates: Activity against Clostridium difficile and parasites” (European Journal of Medicinal Chemistry, 2015)
